Blank lines part the entries; values can stand above or below the compound they belong to.
How the values were obtained:
[1] = Inhibition of nitration of compound 1A in the presence of nitrite by antioxidant inhibitor agents; assay type: physicochemical; details: for Nitration (%) of 1A with inhibiting agent: 1A 50 μM, NaNO2 100 μM; for inhibition of the nitrite-mediated nitration of 1A: pH and nitrite concentration that give almost total conversion to the nitro reaction product
Experimental: (§1) It is known that L-tyrosine can be converted to a nitro reaction product in which the NO2 group is substituted ortho to the ring hydroxyl group. The experimental procedure for determining the extent of nitration of L-tyrosine was used for determining the nitration of compound 1A and the inhibition thereof by selected antioxidants. The experimental procedure for L-tyrosine is known (1998, Chem. Res. Toxicol., 11, 1578). In brief, solutions of compound 1A (50 μM) were exposed to solutions of NaNO3 (2500 μM) and/or NaNO2 (various concentrations) at various pH values, at 37° C. and in the presence or absence of phosphate buffer. The nitration reaction leads to the formation of the 5′-nitro reaction product of compound 1A. This reaction product can be detected and quantified using HPLC, the reaction product having a reduced retention time (under the conditions used) compared to the parent compound. Antioxidant inhibitors were then added to NaNO2— and 1A-containing test solutions and the nitration tests repeated.
On addition of selected antioxidant inhibiting agents to compound 1A in the presence of nitrite, the results of Table 2 were achieved. The amount of antioxidant used was generally around 10-20 times the amount of compound 1A.

[2] = In vivo nitration study in rats; details: given with nitrate and nitrite solution (54 mg and 4 mg per rat)
[3] = Nitration of compound 1A in the presence of nitrite and/or nitrate at various pH (HPLC-MS/MS); assay type: physicochemical; details: 1A 50 μM
Experimental: as §1
Analysis was by HPLC-MS/MS, with the following conditions: […]

[4] = Clinical testing: nitrated reaction product after compound 1A as solution or enteric coated tablets; assay type: in vivo, human; details: solution, single dose, clinically relevant dosages
Source text: Clinically relevant dosages of compound 1A were given to human subjects in the form of a solution in a single dose.

Compound: Cc1cc(C(C)(C)C)c(O)c(C(C)(C)C)c1 [BHT, butylated hydroxytoluene]
- Nitration (%) of 1A with inhibiting agent ([1]; pH 2 (HCl), 24 hr): 0.02%
- inhibition of the nitrite-mediated nitration of 1A [1]: essentially complete inhibition

Compound: O=C1O[C@H]([C@@H](O)CO)C([O-])=C1O.[Na+] [Sodium ascorbate]
- Nitration (%) of 1A with inhibiting agent ([1]; pH 2 (HCl), 4 hr): 0.00%
- Nitration (%) of 1A with inhibiting agent ([1]; pH 2 (phosphate), 4 hr): 0.00%
- Nitration (%) of 1A with inhibiting agent ([1]; pH 6.4, 4 hr): 0.00%
- Nitration (%) of 1A with inhibiting agent ([1]; pH 7.2, 4 hr): 0.00%
- inhibition of the nitrite-mediated nitration of 1A [1]: essentially complete inhibition

Compound: O=S([O-])O.[Na+] [Sodium bisulfite]
- Nitration (%) of 1A with inhibiting agent ([1]; pH 2 (HCl), 0 hr): 0.77%
- Nitration (%) of 1A with inhibiting agent ([1]; pH 2 (HCl), 2 hr): 0.11%
- Nitration (%) of 1A with inhibiting agent ([1]; pH 2 (phosphate), 0 hr): 0.11%
- Nitration (%) of 1A with inhibiting agent ([1]; pH 2 (phosphate), 2 hr): 0.16%
- Nitration (%) of 1A with inhibiting agent ([1]; pH 2 (phosphate), 4 hr): 0.17%
- Nitration (%) of 1A with inhibiting agent ([1]; pH 6.4 (NaAc), 2 hr): 0%
- Nitration (%) of 1A with inhibiting agent ([1]; pH 6.4 (NaAc), 4 hr): 0%
- Nitration (%) of 1A with inhibiting agent ([1]; pH 6.4 (phosphate), 2 hr): 0%
- Nitration (%) of 1A with inhibiting agent ([1]; pH 6.4 (phosphate), 4 hr): 0%

- administered dose nitrated [2]: around 6%
- Nitration (%) ([3]; NaNO2 100 μM, no NaNO3, pH 2 (HCl), 4 hr): 98.6%
- Nitration (%) ([3]; NaNO2 100 μM, no NaNO3, pH 2 (phosphate), 4 hr): 4.27%
- Nitration (%) ([3]; NaNO2 100 μM, no NaNO3, pH 6.4, 4 hr): 0.013%
- Nitration (%) ([3]; NaNO2 100 μM, no NaNO3, pH 7.2, 4 hr): 0%
- Nitration (%) ([3]; NaNO2 100 μM, no inhibiting agent, pH 6.4, 24 hr): 0.02%
- Nitration (%) ([3]; NaNO2 400 μM, no inhibiting agent, pH 6.4, 24 hr): 0.12%
- Nitration (%) ([3]; NaNO2 800 μM, no inhibiting agent, pH 6.4, 24 hr): 0.21%
- Nitration (%) ([3]; NaNO3 2500 μM, NaNO2 100 μM, pH 2 (HCl), 4 hr): 8.4%
- Nitration (%) ([3]; NaNO3 2500 μM, NaNO2 100 μM, pH 2 (phosphate), 4 hr): 9.63%
- Nitration (%) ([3]; NaNO3 2500 μM, NaNO2 100 μM, pH 6.4, 4 hr): 0.017%
- Nitration (%) ([3]; NaNO3 2500 μM, NaNO2 100 μM, pH 7.2, 4 hr): 0%
- Nitration (%) ([3]; NaNO3 2500 μM, no NaNO2, pH 2 (HCl), 4 hr): 0%
- Nitration (%) ([3]; NaNO3 2500 μM, no NaNO2, pH 2 (phosphate), 4 hr): 0%
- Nitration (%) ([3]; NaNO3 2500 μM, no NaNO2, pH 6.4, 4 hr): 0%
- Nitration (%) ([3]; NaNO3 2500 μM, no NaNO2, pH 7.2, 4 hr): 0%
- Nitration (%) ([3]; no NaNO3, no NaNO2, pH 2 (HCl), 24 hr): 0%
- Nitration (%) ([3]; no NaNO3, no NaNO2, pH 2 (phosphate), 24 hr): 0%
- Nitration (%) ([3]; no NaNO3, no NaNO2, pH 6.4, 24 hr): 0%
- Nitration (%) ([3]; no NaNO3, no NaNO2, pH 7.2, 24 hr): 0%
Compound: CC(C)c1cc(Oc2c(Br)cc(NC(=O)CC(=O)O)cc2Br)ccc1O [compound 1A, 3-[[3,5-Dibromo-4-[4-hydroxy-3-(1-methylethyl)-phenoxy]-phenyl]-amino]-3-oxopropanoic acid]
- nitrated reaction product in human subjects [4]: detected in a significant number of the subjects

Compound: Catechin
- Nitration (%) of 1A with inhibiting agent ([1]; pH 2 (HCl), 4 hr): 0.01%
- Nitration (%) of 1A with inhibiting agent ([1]; pH 2 (HCl), 24 hr): 0.02%
- Nitration (%) of 1A with inhibiting agent ([1]; pH 2 (phosphate), 4 hr): 0.01%
- Nitration (%) of 1A with inhibiting agent ([1]; pH 2 (phosphate), 24 hr): 0%
- Nitration (%) of 1A with inhibiting agent ([1]; pH 6.4 (NaAc), 4 hr): 0%
- Nitration (%) of 1A with inhibiting agent ([1]; pH 6.4 (NaAc), 24 hr): 0%
- Nitration (%) of 1A with inhibiting agent ([1]; pH 6.4 (phosphate), 4 hr): 0%
- Nitration (%) of 1A with inhibiting agent ([1]; pH 6.4 (phosphate), 24 hr): 0%

Reference: US20090220598A1, “Stable Oral Pharmaceutical Composition Containing Thyroid Hormone Receptor Agonists” (priority 2006, published 2009)
